By EC50 is commonly meant the midpoint of the concentration-response curve. The low end stands for a more potent agent, the high end for a less potent agent.

Structures are written as SMILES. Where only a bound is given, the exact number is not on record here.

For this test, the target named is T1, Gal4-RORγ-LBD (Homo sapiens, UniProt P51449).
T1 construct: expressed in transfected cells; host or cells: HEK-293 cells (pcDNA3.1neo plasmid)
T1 sequence (P51449 269-508 limits assumed): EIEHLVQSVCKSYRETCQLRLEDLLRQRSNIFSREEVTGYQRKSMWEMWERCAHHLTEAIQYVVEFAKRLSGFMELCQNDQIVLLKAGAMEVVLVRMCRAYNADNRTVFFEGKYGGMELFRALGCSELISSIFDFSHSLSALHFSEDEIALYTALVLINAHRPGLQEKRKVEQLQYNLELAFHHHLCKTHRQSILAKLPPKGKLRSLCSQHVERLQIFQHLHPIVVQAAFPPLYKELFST
The test can be described thus: Gal4-RORγ Luciferase Reporter Assay in HEK-293T Cells. It counts as cell-based. The note with it: HEK-293 cells, 2 μM ursolic acid. The method, then: Assay procedures and results are described below.
In the following protocol, HEK-293 cells were transfected with a construct comprising the Gal4 DNA binding domain fused to the ligand binding domain of RORγ (Gal4-RORγ-LBD) in a pcDNA3.1neo plasmid, and also with a reporter construct comprising pGL4.31 Gal4-luciferase (Promega). Control cells were prepared similarly using empty pcDNA3.1neo and pGL4.31 vectors.
Trans-IT reagent (Mirus, 60 μL) at room temperature was added drop wise to OptiMEM (Invitrogen, 1.5 ml). This reagent mixture was mixed by inversion then incubated for 5 to 30 minutes at room temperature. It then was added to a solution of both expression vectors (5 μg each), mixed, and incubated at room temperature for about 20 minutes. HEK-293 cells were harvested from incubation flasks by removing the media, treating with TrypLE Express (Invitrogen), and incubating until the cells detached from the bottom of the flask (approximately 2-5 minutes). 10 Million cells were collected by centrifugation and re-suspended in 10 mL of Dulbecco's Modified Eagle Medium, High Glucose (DMEM, Invitrogen) containing 10% Fetal Bovine Serum and 100 IU each of penicillin and streptomycin. The re-suspended cells and the transfection mixture were added to a T75 flask, mixed and incubated overnight at 37° C. and 5% CO2.
The cells were harvested as described above, counted, and centrifuged to obtain the desired number of cells, then re-suspended in complete growth media at 0.75×10^6 cells/mL. The RORγ antagonist, ursolic acid, was added to the cells at a final concentration of 2 μM. Cells were plated at 20 μL of cell suspension/well (10,000-15,000 cells/well) in white tissue culture treated 384 well plates. Test compounds were dissolved at 10 mM in DMSO then diluted into complete growth medium to 5× the final intended test concentration. These drug stock solutions, 5 μL/well were added to the tissue culture plate. The final DMSO concentration was 0.2%. The plates were briefly centrifuged then incubated overnight at 37° C. and 5% CO2. To conduct the assay, the tissue culture plates were allowed to equilibrate to room temperature and One-Glo luciferase reagent (Promega, 25 μL/well) was added. The plates were briefly centrifuged then incubated at room temperature for 10 minutes. The luciferase intensity was read on an Envision plate reader (Perkin Elmer). […] The luciferase signal in the absence of ursolic acid or test compound is defined at 100. The Max Response is the upper plateau in the signal as determined by line-fit using a 4-parameter logistic model in PRISM (GraphPad).
Background: In a reporter assay the amount or activity of a reporter protein is the signal.

Take `COc1cc(Cl)cc(-c2ccc3c(c2)N(S(=O)(=O)c2cccc(C(F)(F)F)c2)C[C@H](CC2(C(=O)O)CCOCC2)O3)c1` [Compound 78L, (S)-4-((6-(3-chloro-5-methoxy-phenyl)-4-((3-(trifluoromethyl)-phenyl)sulfonyl)-3,4-dihydro-2H-benzo[b][1,4]oxazin-2-yl)methyl)tetrahydro-2H-pyran-4-carboxylic acid]: the EC50 was less than 500 nM and the “Gal4-RORγ Assay Max Response” value is recorded as “** (The symbol “**” indicates a value in the range of greater than 90 to 150)”.

For `O=C(O)C1(C[C@H]2CN(S(=O)(=O)c3cccc(C(F)(F)F)c3)c3cc(-c4cccc(F)c4Cl)ccc3O2)CCOCC1` [Compound 78M, (S)-4-((6-(2-chloro-3-fluoro-phenyl)-4-((3-(trifluoromethyl)-phenyl)sulfonyl)-3,4-dihydro-2H-benzo[b][1,4]oxazin-2-yl)methyl)tetrahydro-2H-pyran-4-carboxylic acid], the EC50 was less than 500 nM and the “Gal4-RORγ Assay Max Response” value is given as “*** (The symbol “***” indicates a value in the range of greater than 150 to 200)”.

As to `O=C(O)C1(C[C@H]2CN(S(=O)(=O)c3cccc(C(F)(F)F)c3)c3cc(-c4cc(F)cc(F)c4)ccc3O2)CCOCC1` [Compound 78N, (S)-4-((6-(3,5-difluorophenyl)-4-((3-(trifluoromethyl)phenyl)-sulfonyl)-3,4-dihydro-2H-benzo[b][1,4]oxazin-2-yl)methyl)tetrahydro-2H-pyran-4-carboxylic acid], the EC50 is less than 500 nM and the “Gal4-RORγ Assay Max Response” value was “** (The symbol “**” indicates a value in the range of greater than 90 to 150)”.

In the case of `O=C(O)C1(C[C@H]2CN(S(=O)(=O)c3cccc(C(F)(F)F)c3)c3cc(-c4cc(F)cc(C(F)(F)F)c4)ccc3O2)CCOCC1` [Compound 78O, (S)-4-((6-(3-fluoro-5-(trifluoro-methyl)phenyl)-4-((3-(trifluoro-methyl)phenyl)sulfonyl)-3,4-dihydro-2H-benzo[b][1,4]oxazin-2-yl)methyl)tetrahydro-2H-pyran-4-carboxylic acid], the EC50 was less than 500 nM and the “Gal4-RORγ Assay Max Response” value is recorded as “** (The symbol “**” indicates a value in the range of greater than 90 to 150)”.

Regarding `O=C(O)C1(C[C@H]2CN(S(=O)(=O)c3cccc(C(F)(F)F)c3)c3cc(-c4cccc(F)c4F)ccc3O2)CCOCC1` [Compound 78P, (S)-4-((6-(2,3-difluorophenyl)-4-((3-(trifluoromethyl)phenyl)-sulfonyl)-3,4-dihydro-2H-benzo[b][1,4]oxazin-2-yl)methyl)tetrahydro-2H-pyran-4-carboxylic acid], the EC50 was less than 500 nM and the “Gal4-RORγ Assay Max Response” value was “** (The symbol “**” indicates a value in the range of greater than 90 to 150)”.

On to `Cc1cc(F)cc(-c2ccc3c(c2)N(S(=O)(=O)c2cccc(C(F)(F)F)c2)C[C@H](CC2(C(=O)O)CCOCC2)O3)c1` [Compound 78Q, (S)-4-((6-(3-fluoro-5-methyl-phenyl)-4-((3-(trifluoromethyl)-phenyl)sulfonyl)-3,4-dihydro-2H-benzo[b][1,4]oxazin-2-yl)methyl)tetrahydro-2H-pyran-4-carboxylic acid], for which the EC50 was less than 500 nM and the “Gal4-RORγ Assay Max Response” value is recorded as “** (The symbol “**” indicates a value in the range of greater than 90 to 150)”.

`COc1cc(F)cc(-c2ccc3c(c2)N(S(=O)(=O)c2cccc(C(F)(F)F)c2)C[C@H](CC2(C(=O)O)CCOCC2)O3)c1` [Compound 78R, (S)-4-((6-(3-fluoro-5-methoxy-phenyl)-4-((3-(trifluoromethyl)-phenyl)sulfonyl)-3,4-dihydro-2H-benzo[b][1,4]oxazin-2-yl)methyl)tetrahydro-2H-pyran-4-carboxylic acid]: the EC50 is less than 500 nM and the “Gal4-RORγ Assay Max Response” value is recorded as “** (The symbol “**” indicates a value in the range of greater than 90 to 150)”.

As to `COc1cc(F)cc(-c2ccc3c(c2)N(S(=O)(=O)c2cccc(C(F)(F)F)c2)C[C@H](CC2(C(=O)O)CCOCC2)O3)c1F` [Compound 78S, (S)-4-((6-(2,5-difluoro-3-methoxyphenyl)-4-((3-(trifluoro-methyl)phenyl)sulfonyl)-3,4-dihydro-2H-benzo[b][1,4]oxazin-2-yl)methyl)tetrahydro-2H-pyran-4-carboxylic acid], the EC50 was less than 500 nM and the “Gal4-RORγ Assay Max Response” value was “** (The symbol “**” indicates a value in the range of greater than 90 to 150)”.

On to `O=C(O)C1(C[C@H]2CN(S(=O)(=O)c3cccc(C(F)(F)F)c3)c3cc(-c4cc(F)cc(F)c4F)ccc3O2)CCOCC1` [Compound 78T, (S)-4-((4-((3-(trifluoromethyl)-phenyl)sulfonyl)-6-(2,3,5-trifluorophenyl)-3,4-dihydro-2H-benzo[b][1,4]oxazin-2-yl)methyl)tetrahydro-2H-pyran-4-carboxylic acid], for which the EC50 was less than 500 nM and the “Gal4-RORγ Assay Max Response” value was “** (The symbol “**” indicates a value in the range of greater than 90 to 150)”.

For the compound `COc1cc(F)c(F)c(-c2ccc3c(c2)N(S(=O)(=O)c2cccc(C(F)(F)F)c2)C[C@H](CC2(C(=O)O)CCOCC2)O3)c1` [Compound 78U, (S)-4-((6-(2,3-difluoro-5-methoxyphenyl)-4-((3-(trifluoromethyl)phenyl)sulfonyl)-3,4-dihydro-2H-benzo[b][1,4]oxazin-2-yl)methyl)tetrahydro-2H-pyran-4-carboxylic acid], the EC50 was less than 500 nM and the “Gal4-RORγ Assay Max Response” value is listed as “** (The symbol “**” indicates a value in the range of greater than 90 to 150)”.

In the case of `O=C(O)C1(C[C@H]2CN(S(=O)(=O)c3cccc(C(F)(F)F)c3)c3cc(-c4cc(F)cc(OC(F)F)c4F)ccc3O2)CCOCC1` [Compound 78V, (S)-4-((6-(3-(difluoromethoxy)-2,5-difluorophenyl)-4-((3-(trifluoromethyl)phenyl)sulfonyl)-3,4-dihydro-2H-benzo[b][1,4]oxazin-2-yl)methyl)tetrahydro-2H-pyran-4-carboxylic acid], the 50% effective concentration (EC50) is less than 500 nM and the “Gal4-RORγ Assay Max Response” value is reported as “** (The symbol “**” indicates a value in the range of greater than 90 to 150)”.

Take `O=C(O)C1(C[C@H]2CN(S(=O)(=O)c3cccc(C(F)(F)F)c3)c3cc(-c4cc(Cl)cc(F)c4F)ccc3O2)CCOCC1` [Compound 78W, (S)-4-((6-(5-chloro-2,3-difluorophenyl)-4-((3-(trifluoromethyl)phenyl)sulfonyl)-3,4-dihydro-2H-benzo[b][1,4]oxazin-2-yl)methyl)tetrahydro-2H-pyran-4-carboxylic acid]: the EC50 was less than 500 nM and the “Gal4-RORγ Assay Max Response” value is given as “** (The symbol “**” indicates a value in the range of greater than 90 to 150)”.

As for `O=C(O)CO[C@@H]1Cc2ccc(-c3cc(F)ccc3F)cc2N(S(=O)(=O)c2cccc(C(F)(F)F)c2)C1` [Compound 82, (R)-2-((7-(2,5-difluorophenyl)-1-((3-(trifluoromethyl)phenyl)sulfonyl)-1,2,3,4-tetrahydroquinolin-3-yl)oxy)acetic acid], the EC50 fell in the range of 500 to 5000 nM and the “Gal4-RORγ Assay Max Response” value is “** (The symbol “**” indicates a value in the range of greater than 90 to 150)”.

With `CC(C)(O[C@@H]1Cc2ccc(-c3cc(F)ccc3F)cc2N(S(=O)(=O)c2cccc(C(F)(F)F)c2)C1)C(=O)O` [Compound 83B, (R)-2-((7-(2,5-difluorophenyl)-1-((3-(trifluoromethyl)phenyl)sulfonyl)-1,2,3,4-tetrahydroquinolin-3-yl)oxy)-2-methylpropanoic acid], the EC50 was 500 to 5000 nM and the “Gal4-RORγ Assay Max Response” value is recorded as “** (The symbol “**” indicates a value in the range of greater than 90 to 150)”.

For the compound `CC(C)(O[C@H]1Cc2ccc(-c3cc(F)ccc3F)cc2N(S(=O)(=O)c2cccc(C(F)(F)F)c2)C1)C(=O)O` [Compound 83C, (S)-2-((7-(2,5-difluorophenyl)-1-((3-(trifluoromethyl)phenyl)sulfonyl)-1,2,3,4-tetrahydroquinolin-3-yl)oxy)-2-methylpropanoic acid], the EC50 lay within 500 to 5000 nM and the “Gal4-RORγ Assay Max Response” value is reported as “** (The symbol “**” indicates a value in the range of greater than 90 to 150)”.

The values above are taken from patent US10611740B2, “Aryl dihydro-2H-benzo[b][1,4]oxazine sulfonamide and related compounds for use as agonists of RORγ and the treatment of disease” (Lycera Corporation, priority 2015, dated 2020).
